# PubChem BioAssay AID540323 (Johns Hopkins Ion Channel Center, 2011)
# The source made the active and inactive calls.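 Rule for the calls: active = peak hERG channel inhibition above 30% at some tested dose, together with a fitted dose response curve; inactive = no hERG inhibition at any dose, or no curve.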
# Target: Voltage-gated inwardly rectifying potassium channel KCNH2 (Homo sapiens) (UniProt Q12809)
# Test: KCNH2 potassium channel blockade – FluxOR Tl flux, hERG cells, CRC 2, selectivity assay for KCNK9 inhibitor project, SAR follow-up (AID 540323)
# Conditions: hERG-expressing cells, FluxOR thallium flux fluorescence; at 30 µM (top of the series); test wells contain dofetilide at its IC70
# Voltage-gated inwardly rectifying potassium channel KCNH2 (Homo sapiens), sequence (Q12809 whole entry, looked up): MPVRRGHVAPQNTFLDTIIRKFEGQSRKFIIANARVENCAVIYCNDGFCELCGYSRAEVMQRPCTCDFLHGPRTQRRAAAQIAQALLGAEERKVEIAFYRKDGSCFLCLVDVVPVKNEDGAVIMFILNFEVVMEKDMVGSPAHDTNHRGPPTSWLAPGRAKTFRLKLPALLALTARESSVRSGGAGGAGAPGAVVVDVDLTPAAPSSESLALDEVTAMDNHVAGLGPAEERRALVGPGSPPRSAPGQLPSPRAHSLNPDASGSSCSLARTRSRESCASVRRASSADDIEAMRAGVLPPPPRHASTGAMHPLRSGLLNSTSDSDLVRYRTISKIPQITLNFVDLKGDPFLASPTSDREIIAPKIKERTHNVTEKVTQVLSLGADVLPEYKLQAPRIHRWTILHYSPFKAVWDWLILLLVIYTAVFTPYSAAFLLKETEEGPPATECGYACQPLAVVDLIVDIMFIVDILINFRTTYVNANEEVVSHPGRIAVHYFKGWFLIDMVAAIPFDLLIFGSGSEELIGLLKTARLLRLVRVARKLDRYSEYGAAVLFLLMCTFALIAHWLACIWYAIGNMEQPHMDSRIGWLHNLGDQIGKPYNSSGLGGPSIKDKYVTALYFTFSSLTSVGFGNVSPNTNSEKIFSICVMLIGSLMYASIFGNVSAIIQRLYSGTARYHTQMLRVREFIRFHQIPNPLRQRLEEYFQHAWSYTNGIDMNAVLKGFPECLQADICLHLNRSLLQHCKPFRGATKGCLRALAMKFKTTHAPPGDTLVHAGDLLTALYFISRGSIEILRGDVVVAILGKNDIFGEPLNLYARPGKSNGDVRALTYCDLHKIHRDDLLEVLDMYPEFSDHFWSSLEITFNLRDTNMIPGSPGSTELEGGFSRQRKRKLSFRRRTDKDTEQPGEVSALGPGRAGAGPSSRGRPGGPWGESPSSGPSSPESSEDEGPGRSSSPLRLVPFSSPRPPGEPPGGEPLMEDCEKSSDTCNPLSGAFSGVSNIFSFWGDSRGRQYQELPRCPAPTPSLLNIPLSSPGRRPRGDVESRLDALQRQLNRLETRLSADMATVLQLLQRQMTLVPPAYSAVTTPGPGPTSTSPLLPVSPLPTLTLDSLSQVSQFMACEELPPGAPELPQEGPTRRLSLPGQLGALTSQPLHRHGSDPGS
row,SMILES,"fluorescence ratio, lower = inhibition"
1,O=C(Nc1cccc(NC(=O)c2ccc(Cl)cc2)c1)c1ccccc1,inactive
2,Cc1cccc(C(=O)Nc2cccc(NC(=O)c3ccccc3OCC(C)C)c2)c1,inactive
3,CC(C1CC2CCC1C2)n1c(-c2ccc(Cl)cc2)n[nH]c1=S (stereo not drawn),inactive
4,CCOc1ccccc1C(=O)Nc1cccc(NC(=O)c2ccccc2OC)c1,inactive
5,CCOc1ccccc1C(=O)Nc1cccc(NC(=O)c2ccccc2C(F)(F)F)c1,inactive
6,CCOc1ccccc1NC(=O)c1cccc(NC(=O)c2ccc(Cl)cc2)c1,inactive
7,O=C(Nc1ccccc1Cl)c1cccc(NC(=O)C2CCCC2)c1,inactive
8,Cc1ccccc1-c1n[nH]c(=S)n1C(C)C1CC2CCC1C2 (stereo not drawn),inactive
9,CCOc1ccccc1NC(=O)c1cccc(NC(=O)c2ccc(C)cc2)c1,inactive
10,O=C(Nc1cccc(NC(=O)c2ccoc2)c1)c1ccccc1,inactive
11,CCOc1ccccc1NC(=O)c1cccc(NC(=O)CC2CCCC2)c1,inactive
12,O=C(Nc1cccc(NC(=O)c2cccc(Cl)c2)c1)c1ccccc1,inactive
13,CCOc1ccccc1NC(=O)c1cccc(NC(=O)c2ccc(OC)cc2)c1,inactive
14,COc1ccccc1C(=O)Nc1cccc(NC(=O)c2ccccc2)c1,inactive
15,CCOc1ccccc1C(=O)Nc1cccc(NC(=O)C2CCCC2)c1,inactive
16,Cc1cccc(C(=O)Nc2cccc(NC(=O)C3CCCCC3)c2)c1,inactive
17,CCOc1ccccc1NC(=O)c1cccc(NC(=O)c2cccc(OC)c2)c1,inactive
18,CCOc1ccccc1NC(=O)c1cccc(NC(=O)c2ccccc2)c1,inactive
19,Cc1cccc(C(=O)Nc2cccc(NC(=O)c3ccccc3C)c2)c1,inactive
20,CC(C)n1c(-c2ccco2)n[nH]c1=S,inactive
21,CCOc1ccccc1NC(=O)c1cccc(NC(=O)c2cccc(Cl)c2)c1,inactive
22,COc1ccc(C(=O)Nc2cccc(NC(=O)c3cccc(C)c3)c2)cc1,inactive
23,Cc1cccc(C(=O)Nc2cccc(NC(=O)c3cccs3)c2)c1,inactive

row,SMILES,"fluorescence ratio, lower = inhibition"
1,Cc1ccc(-c2n[nH]c(=S)n2C(C)C2CC3CCC2C3)cc1 (stereo not drawn),inactive
2,CCOc1ccc(NC(=O)c2cccc(NC(=O)C3CCCC3)c2)cc1,inactive
3,CCOc1ccccc1NC(=O)c1cccc(NC(=O)C(C)(C)C)c1,inactive
4,CCOc1ccccc1NC(=O)c1cccc(NC(=O)c2cccc(C)c2)c1,inactive
5,CCOc1ccccc1NC(=O)c1cccc(NC(=O)C2CC2)c1,inactive
6,CCOc1ccccc1NC(=O)c1cccc(NC(=O)c2ccccc2Cl)c1,inactive
7,Cc1cccc(C(=O)Nc2cccc(NC(=O)c3cccc(C(F)(F)F)c3)c2)c1,inactive
8,CC(C1CC2CCC1C2)n1c(-c2cccc(Cl)c2)n[nH]c1=S (stereo not drawn),inactive
9,Cc1cccc(C(=O)Nc2cccc(NC(=O)c3ccc(N(C)C)cc3)c2)c1,inactive
10,Cc1cccc(C(=O)Nc2cccc(NC(=O)c3ccccc3C(C)C)c2)c1,inactive
11,O=C(Nc1cccc(NC(=O)c2cccc(C(F)(F)F)c2)c1)c1ccccc1,inactive
12,CCOc1ccccc1NC(=O)c1cccc(NC(=O)c2ccccc2C)c1,inactive
13,O=C(Nc1cccc(NC(=O)c2ccsc2)c1)c1ccccc1,inactive
14,COc1cccc(C(=O)Nc2cccc(NC(=O)c3ccccc3)c2)c1,inactive
15,O=C(Nc1cccc(NC(=O)c2ccncc2)c1)c1ccccc1,inactive
16,CC(C1CC2CCC1C2)n1c(-c2ccco2)n[nH]c1=S (stereo not drawn),inactive
17,CCOc1ccccc1NC(=O)c1cccc(NC(=O)c2cccc(C(F)(F)F)c2)c1,inactive
18,CCOc1ccccc1NC(=O)c1cccc(NC(=O)c2ccc(C(F)(F)F)cc2)c1,inactive
19,Cc1cccc(C(=O)Nc2cccc(NC(=O)c3ccncc3)c2)c1,inactive
20,Cc1cccc(-c2n[nH]c(=S)n2C(C)C2CC3CCC2C3)c1 (stereo not drawn),inactive
21,O=C(Nc1cccc(NC(=O)c2ccco2)c1)c1ccccc1,inactive
22,O=C(Nc1cccc(NC(=O)c2ccccn2)c1)c1ccccc1,inactive
23,COc1ccccc1NC(=O)c1cccc(NC(=O)c2ccccc2)c1,inactive

row,SMILES,"fluorescence ratio, lower = inhibition"
1,CC(C1CC2CCC1C2)n1c(-c2ccsc2)n[nH]c1=S (stereo not drawn),inactive
2,O=C(Nc1cccc(NC(=O)c2ccccc2)c1)c1ccccc1,inactive
3,COc1ccccc1NC(=O)c1cccc(NC(=O)C2CCCCC2)c1,inactive
4,CC(C1CC2CCC1C2)n1c(C2CCOC2)n[nH]c1=S (stereo not drawn),inactive
5,CCOc1ccccc1NC(=O)c1cccc(NC(=O)C2CCCC2)c1,inactive
6,Cc1cccc(C(=O)Nc2cccc(NC(=O)c3ccc(C(F)(F)F)cc3)c2)c1,inactive
7,CCOc1ccccc1NC(=O)c1cccc(NC(=O)C2CCCO2)c1 (stereo not drawn),inactive
8,COc1cccc(-c2n[nH]c(=S)n2C(C)C2CC3CCC2C3)c1 (stereo not drawn),inactive
9,COc1ccccc1NC(=O)c1cccc(NC(=O)c2ccccc2OC)c1,inactive
10,O=C(Nc1cccc(NC(=O)c2ccccc2Cl)c1)c1ccccc1,inactive
11,COc1cccc(OC)c1C(=O)Nc1cccc(NC(=O)c2cccc(C)c2)c1,inactive
12,O=C(Nc1cccc(NC(=O)c2cccnc2)c1)c1ccccc1,inactive
13,CCOc1ccccc1NC(=O)c1cccc(NC(=O)c2ccccc2C(F)(F)F)c1,inactive
14,CC(c1ccccc1)n1c(-c2ccco2)n[nH]c1=S (stereo not drawn),inactive
15,CC(C)(C)c1ccc(C(=O)Nc2cccc(NC(=O)c3ccccc3)c2)cc1,inactive
16,Cc1cccc(C(=O)Nc2cccc(NC(=O)c3ccccc3Cl)c2)c1,inactive
17,CCOc1ccccc1C(=O)Nc1cccc(NC(=O)c2cccc(C)c2)c1,inactive
18,CCOc1ccccc1NC(=O)c1cccc(NC(=O)C2CCOC2)c1 (stereo not drawn),inactive
19,COc1ccc(C(=O)Nc2cccc(NC(=O)c3ccccc3)c2)cc1,inactive
20,CC(C1CC2CCC1C2)n1c(-c2ccoc2)n[nH]c1=S (stereo not drawn),inactive
21,O=C(Nc1cccc(NC(=O)c2ccccc2C(F)(F)F)c1)c1ccccc1,inactive

# Same assay, conditions: hERG-expressing cells, FluxOR thallium flux fluorescence; test wells contain dofetilide at its IC70
row,SMILES,IC50 [µM]
1,Cc1cccc(C(=O)Nc2cccc(NC(=O)c3ccccc3)c2)c1,8.08
